Measured values reported in PubChem BioAssay AID248 (DTP/NCI, 2004).
Where “and” joins values, the source holds several entries; their conditions need not be identical. Equal entries are not always repeated. Inconclusive results and toxic doses are left out.

Test system: L1210 leukemia ip in BDF1 mice, survival T/C
Test: NCI In Vivo Anticancer Drug Screen. Data for tumor model L1210 Leukemia (intraperitoneal) in B6D2F1 (BDF1) mice
Conditions: endpoint: mean survival time, higher = longer survival
Method in brief: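 Each compound was tested against a transplantable tumor grown in mice. The endpoint was survival, with treated animals benchmarked against vehicle controls as a simple ratio.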

Compound: OC(CBr)C(O)C(O)C(O)CBr (configuration not stated)
- T/C (dose: 15.6 mg/kg/injection, schedule: Q03HX008 (ip), vehicle: carboxymethylcellulose (CMC)): 90 % of control
- T/C (dose: 15.6 mg/kg/injection, schedule: Q03HX024 (ip), vehicle: carboxymethylcellulose (CMC)): 91 % of control
- T/C (dose: 31.2 mg/kg/injection, schedule: Q#A X034 (ip), vehicle: carboxymethylcellulose (CMC)): 99 % of control
- T/C (dose: 31.25 mg/kg/injection, schedule: Q01DX Z (ip), vehicle: carboxymethylcellulose (CMC)): 94 % of control
- T/C (dose: 31.3 mg/kg/injection, schedule: Q03HX008 (ip), vehicle: carboxymethylcellulose (CMC)): 96 % of control
- T/C (dose: 31.3 mg/kg/injection, schedule: Q03HX024 (ip), vehicle: carboxymethylcellulose (CMC)): 93 % of control
- T/C (dose: 62.5 mg/kg/injection, schedule: Q01DX001 (ip), vehicle: carboxymethylcellulose (CMC)): 101 % of control
- T/C (dose: 62.5 mg/kg/injection, schedule: Q01DX009 (ip), vehicle: carboxymethylcellulose (CMC)): 104 % of control
- T/C (dose: 62.5 mg/kg/injection, schedule: Q01DX017 (ip), vehicle: carboxymethylcellulose (CMC)): 98 % of control
- T/C (dose: 62.5 mg/kg/injection, schedule: Q03HX008 (ip), vehicle: carboxymethylcellulose (CMC)): 97 % of control and 98 % of control
- T/C (dose: 62.5 mg/kg/injection, schedule: Q03HX024 (ip), vehicle: carboxymethylcellulose (CMC)): 87 % of control
- T/C (dose: 62.5 mg/kg/injection, schedule: Q#A X034 (ip), vehicle: carboxymethylcellulose (CMC)): 95 % of control
- T/C (dose: 63.0 mg/kg/injection, schedule: Q01DX Z (ip), vehicle: carboxymethylcellulose (CMC)): 103 % of control and 94 % of control
- T/C (dose: 71.0 mg/kg/injection, schedule: Q01DX009 (oral), vehicle: carboxymethylcellulose (CMC)): 97 % of control
- T/C (dose: 100.0 mg/kg/injection, schedule: Q01DX001 (ip), vehicle: saline): 98 % of control
- T/C (dose: 100.0 mg/kg/injection, schedule: Q01DX009 (ip), vehicle: other): 103 % of control
- T/C (dose: 106.0 mg/kg/injection, schedule: Q01DX009 (ip), vehicle: saline): 100 % of control
- T/C (dose: 107.0 mg/kg/injection, schedule: Q## X006 (oral), vehicle: carboxymethylcellulose (CMC)): 94 % of control
- T/C (dose: 120.0 mg/kg/injection, schedule: Q01DX001 (ip), vehicle: carboxymethylcellulose (CMC)): 97 % of control
- T/C (dose: 125.0 mg/kg/injection, schedule: Q01DX001 (ip), vehicle: carboxymethylcellulose (CMC)): 95 % of control and 92 % of control
- T/C (dose: 125.0 mg/kg/injection, schedule: Q01DX009 (ip), vehicle: carboxymethylcellulose (CMC)): 104 % of control
- T/C (dose: 125.0 mg/kg/injection, schedule: Q01DX015 (ip), vehicle: saline): 102 % of control
- T/C (dose: 125.0 mg/kg/injection, schedule: Q01DX Z (ip), vehicle: carboxymethylcellulose (CMC)): 98 % of control and 92 % of control
- T/C (dose: 125.0 mg/kg/injection, schedule: Q02DX005 (ip), vehicle: carboxymethylcellulose (CMC)): 100 % of control
- T/C (dose: 125.0 mg/kg/injection, schedule: Q02DX008 (ip), vehicle: carboxymethylcellulose (CMC)): 95 % of control
- T/C (dose: 125.0 mg/kg/injection, schedule: Q03HX008 (ip), vehicle: carboxymethylcellulose (CMC)): 98 % of control
- T/C (dose: 125.0 mg/kg/injection, schedule: Q03HX024 (ip), vehicle: carboxymethylcellulose (CMC)): 105 % of control
- T/C (dose: 125.0 mg/kg/injection, schedule: Q04DX003 (ip), vehicle: carboxymethylcellulose (CMC)): 87 % of control
- T/C (dose: 160.0 mg/kg/injection, schedule: Q01DX009 (ip), vehicle: saline): 102 % of control
- T/C (dose: 160.0 mg/kg/injection, schedule: Q## X006 (oral), vehicle: carboxymethylcellulose (CMC)): 95 % of control
- T/C (dose: 177.0 mg/kg/injection, schedule: Q01DX009 (ip), vehicle: acetone): 113 % of control
- T/C (dose: 200.0 mg/kg/injection, schedule: Q01DX001 (ip), vehicle: other): 97 % of control
- T/C (dose: 200.0 mg/kg/injection, schedule: Q01DX001 (ip), vehicle: saline): 96 % of control
- T/C (dose: 200.0 mg/kg/injection, schedule: Q01DX009 (ip), vehicle: other): 105 % of control
- T/C (dose: 240.0 mg/kg/injection, schedule: Q01DX009 (ip), vehicle: saline): 104 % of control
- T/C (dose: 240.0 mg/kg/injection, schedule: Q## X003 (oral), vehicle: carboxymethylcellulose (CMC)): 96 % of control
- T/C (dose: 250.0 mg/kg/injection, schedule: Q01DX001 (ip), vehicle: carboxymethylcellulose (CMC)): 95 % of control and 104 % of control
- T/C (dose: 250.0 mg/kg/injection, schedule: Q01DX009 (ip), vehicle: carboxymethylcellulose (CMC)): 98 % of control
- T/C (dose: 250.0 mg/kg/injection, schedule: Q01DX015 (ip), vehicle: saline): 110 % of control
- T/C (dose: 250.0 mg/kg/injection, schedule: Q01DX Z (ip), vehicle: carboxymethylcellulose (CMC)): 93 % of control and 106 % of control
- T/C (dose: 250.0 mg/kg/injection, schedule: Q02DX005 (ip), vehicle: carboxymethylcellulose (CMC)): 95 % of control
- T/C (dose: 250.0 mg/kg/injection, schedule: Q04DX003 (ip), vehicle: carboxymethylcellulose (CMC)): 97 % of control
- T/C (dose: 250.0 mg/kg/injection, schedule: Q#A X034 (ip), vehicle: carboxymethylcellulose (CMC)): 98 % of control
- T/C (dose: 266.0 mg/kg/injection, schedule: Q01DX001 (ip), vehicle: acetone): 189 % of control
- T/C (dose: 266.0 mg/kg/injection, schedule: Q01DX001 (ip), vehicle: saline): 102 % of control
- T/C (dose: 266.0 mg/kg/injection, schedule: Q01DX009 (ip), vehicle: acetone): 110 % of control
- T/C (dose: 266.0 mg/kg/injection, schedule: Q04DX003 (ip), vehicle: acetone): 108 % of control
- T/C (dose: 266.0 mg/kg/injection, schedule: Q04DX003 (ip), vehicle: saline): 100 % of control and 98 % of control
- T/C (dose: 266.0 mg/kg/injection, schedule: Q08DX002 (ip), vehicle: acetone): 102 % of control
- T/C (dose: 266.0 mg/kg/injection, schedule: Q08DX002 (ip), vehicle: saline): 100 % of control
- T/C (dose: 360.0 mg/kg/injection, schedule: Q01DX009 (ip), vehicle: saline): 104 % of control
- T/C (dose: 400.0 mg/kg/injection, schedule: Q01DX001 (ip), vehicle: acetone): 110 % of control
- T/C (dose: 400.0 mg/kg/injection, schedule: Q01DX001 (ip), vehicle: other): 105 % of control
- T/C (dose: 400.0 mg/kg/injection, schedule: Q01DX001 (ip), vehicle: saline): 101 % of control and 104 % of control
- T/C (dose: 400.0 mg/kg/injection, schedule: Q01DX009 (ip), vehicle: acetone): 113 % of control
- T/C (dose: 400.0 mg/kg/injection, schedule: Q01DX009 (ip), vehicle: other): 97 % of control
- T/C (dose: 400.0 mg/kg/injection, schedule: Q04DX003 (ip), vehicle: acetone): 112 % of control
- T/C (dose: 400.0 mg/kg/injection, schedule: Q04DX003 (ip), vehicle: saline): 102 % of control
- T/C (dose: 400.0 mg/kg/injection, schedule: Q08DX002 (ip), vehicle: acetone): 103 % of control
- T/C (dose: 400.0 mg/kg/injection, schedule: Q08DX002 (ip), vehicle: saline): 102 % of control
- T/C (dose: 480.0 mg/kg/injection, schedule: Q01DX009 (sc), vehicle: carboxymethylcellulose (CMC)): 93 % of control
- T/C (dose: 480.0 mg/kg/injection, schedule: Q## X008 (ip), vehicle: carboxymethylcellulose (CMC)): 94 % of control
- T/C (dose: 500.0 mg/kg/injection, schedule: Q01DX001 (ip), vehicle: carboxymethylcellulose (CMC)): 96 % of control and 100 % of control and 93 % of control
- T/C (dose: 500.0 mg/kg/injection, schedule: Q01DX009 (ip), vehicle: carboxymethylcellulose (CMC)): 105 % of control
- T/C (dose: 500.0 mg/kg/injection, schedule: Q01DX015 (ip), vehicle: saline): 110 % of control
- T/C (dose: 500.0 mg/kg/injection, schedule: Q01DX Z (ip), vehicle: carboxymethylcellulose (CMC)): 94 % of control and 104 % of control
- T/C (dose: 500.0 mg/kg/injection, schedule: Q02DX005 (ip), vehicle: carboxymethylcellulose (CMC)): 108 % of control
- T/C (dose: 500.0 mg/kg/injection, schedule: Q04DX003 (ip), vehicle: carboxymethylcellulose (CMC)): 95 % of control
- T/C (dose: 540.0 mg/kg/injection, schedule: Q01DX009 (ip), vehicle: saline): 111 % of control
- T/C (dose: 600.0 mg/kg/injection, schedule: Q01DX001 (ip), vehicle: acetone): 100 % of control
- T/C (dose: 600.0 mg/kg/injection, schedule: Q01DX001 (ip), vehicle: saline): 104 % of control
- T/C (dose: 600.0 mg/kg/injection, schedule: Q01DX009 (ip), vehicle: acetone): 113 % of control
- T/C (dose: 600.0 mg/kg/injection, schedule: Q04DX003 (ip), vehicle: acetone): 123 % of control
- T/C (dose: 600.0 mg/kg/injection, schedule: Q04DX003 (ip), vehicle: saline): 102 % of control
- T/C (dose: 600.0 mg/kg/injection, schedule: Q08DX002 (ip), vehicle: acetone): 103 % of control
- T/C (dose: 600.0 mg/kg/injection, schedule: Q08DX002 (ip), vehicle: saline): 102 % of control
- T/C (dose: 800.0 mg/kg/injection, schedule: Q01DX001 (ip), vehicle: other): 109 % of control
- T/C (dose: 900.0 mg/kg/injection, schedule: Q01DX001 (ip), vehicle: acetone): 108 % of control
- T/C (dose: 900.0 mg/kg/injection, schedule: Q01DX001 (ip), vehicle: saline): 105 % of control
- T/C (dose: 900.0 mg/kg/injection, schedule: Q04DX003 (ip), vehicle: acetone): 100 % of control
- T/C (dose: 900.0 mg/kg/injection, schedule: Q04DX003 (ip), vehicle: saline): 105 % of control
- T/C (dose: 900.0 mg/kg/injection, schedule: Q08DX002 (ip), vehicle: acetone): 100 % of control
- T/C (dose: 900.0 mg/kg/injection, schedule: Q08DX002 (ip), vehicle: saline): 94 % of control
- T/C (dose: 1000.0 mg/kg/injection, schedule: Q01DX001 (ip), vehicle: carboxymethylcellulose (CMC)): 100 % of control and 104 % of control and 94 % of control
- T/C (dose: 1000.0 mg/kg/injection, schedule: Q01DX015 (ip), vehicle: saline): 121 % of control
- T/C (dose: 1000.0 mg/kg/injection, schedule: Q04DX003 (ip), vehicle: carboxymethylcellulose (CMC)): 113 % of control
- T/C (dose: 1440.0 mg/kg/injection, schedule: Q## X003 (oral), vehicle: carboxymethylcellulose (CMC)): 96 % of control
